Where two headings read alike, the source gives them in different places.
What was measured:
[1] = tested on: HIV strain C, mutation L100I in HIV reverse transcriptase; assay: cellular antiviral assay, strain C; format: cell-based; details: for EC50: Human immunodeficiency virus 1, read-out: pEC50 C (converted); for pEC50 C: strain C, L100I
Description: Strain C contains mutation L100I in HIV reverse transcriptase, […]

[2] = cellular antiviral assay, strain G; format: cell-based, HIV; details: Human immunodeficiency virus 1, read-out: pEC50 G (converted)
[3] = tested on: HIV strain B, mutation K103N in HIV reverse transcriptase; assay: cellular antiviral assay, strain B; format: cell-based; details: for EC50: Human immunodeficiency virus 1, read-out: pEC50 B (converted)
Description: Strain B contains mutation K103N in HIV reverse transcriptase, […]

[4] = tested on: HIV strain D, mutation Y188L in HIV reverse transcriptase; assay: cellular antiviral assay, strain D; format: cell-based; details: for EC50: Human immunodeficiency virus 1, read-out: pEC50 D (converted); for pEC50 D: strain D, Y188L
Description: Strain D contains mutation Y188L in HIV reverse transcriptase, […]

[5] = tested on: HIV strain E, mutations L100I and K103N in HIV reverse transcriptase; assay: cellular antiviral assay, strain E; format: cell-based; details: for EC50: Human immunodeficiency virus 1, read-out: pEC50 E (converted); for pEC50 E: strain E, L100I and K103N
Description: Strain E contains mutations L100I and K103N in HIV reverse transcriptase, […]

[6] = tested on: wild type HIV-LAI strain (IIIB); assay: cellular antiviral assay, strain IIIB; format: cell-based; details: for EC50: read-out: pEC50 IIIB (converted)
Description: Strain IIIB is wild type HIV-LAI strain

[7] = Human immunodeficiency virus 1, IIIB

| Structure (SMILES) | EC50 [1] | EC50 [2] | EC50 [3] | EC50 [4] | EC50 [5] | EC50 ([6]; Human immunodeficiency virus 1, strain IIIB, wild type HIV-LAI) | pEC50 C [1] | pEC50 D [4] | pEC50 E [5] | pEC50 IIIB ([6]; strain IIIB, wild type HIV-LAI) | EC50 [6, 7] | pEC50 B ([3]; strain B, K103N) |
| --- | --- | --- | --- | --- | --- | --- | --- | --- | --- | --- | --- | --- |
| Cc1cc(/C=C/C#N)cc(C)c1Nc1nc(Nc2ccc(C#N)cc2)ncc1-c1ccco1 [Compound 3] | 0.631 nM | 631 nM | 0.794 nM | 2.51 nM | 3.16 nM | 0.631 nM |  |  |  |  |  |  |
| Cc1noc(-c2cnc(Nc3ccc(C#N)cc3)nc2Nc2c(C)cc(/C=C/C#N)cc2C)n1 [Compound 16] |  |  |  |  |  |  | 8.4 | 7.8 | 7.7 | 8.3 |  |  |
| N#C/C=C/c1cc(F)c(Nc2nc(Nc3ccc(C#N)cc3)ncc2-n2cccc2)c(Cl)c1 [Compound 4] | 0.794 nM | 2510 nM | 1 nM | 12.6 nM | 3.16 nM |  |  |  |  |  | 1 nM |  |
| Cc1cc(/C=C/C#N)cc(C)c1Nc1nc(Nc2ccc(C#N)cc2)ncc1-c1cccnc1 [Compound 2] | 2 nM | 7940 nM | 0.631 nM | 3.98 nM | 12.6 nM |  |  |  |  |  | 0.631 nM |  |
| Cc1cc(/C=C/C#N)cc(C)c1Nc1nc(Nc2ccc(C#N)cc2)ncc1-n1cccc1 [Compound 1] | 1 nM | 1580 nM | 0.794 nM | 6.31 nM | 3.98 nM |  |  |  |  |  | 1 nM |  |
| Cc1cc(/C=C/C#N)cc(C)c1Nc1nc(Nc2ccc(C#N)cc2)ncc1-c1ncccc1N [Compound 20] |  |  |  |  |  |  |  |  | 7.1 | 8.7 |  |  |
| Cc1cc(/C=C/C#N)cc(C)c1Nc1nc(Nc2ccc(C#N)cc2)ncc1-c1nc(-c2ccco2)no1 [Compound 15] |  |  |  |  |  |  | 6.7 | 6.2 | 4.6 | 7.6 |  |  |
| Cc1cc(/C=C/C#N)cc(C)c1Nc1nc(Nc2ccc(C#N)cc2)ncc1-c1nc(-c2cccs2)no1 [Compound 17] |  |  |  |  |  |  | 6.0 | 5.7 | 5.0 | 7.0 |  |  |
| Cc1cc(C=CC#N)cc(C)c1Nc1nc(Nc2ccc(C#N)cc2)ncc1-c1nc(-c2ccccc2)no1 (mixture of isomers) [Compound 13] |  |  |  |  |  |  | 7.8 | 7 | 7 | 7.8 |  | 7.7 |

Source: patent US8575342B2, “HIV inhibiting 5-heterocyclyl pyrimidines” (Tibotech Pharmaceuticals Ltd., priority 2004, dated 2013)
